From PubChem BioAssay (NCI)
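Dose response: 5 concentrations. Exposure: 48 h. Format: 96-well plates. Endpoint: linear interpolation; highest concentration if not reached. TGI is the concentration that stops growth completely.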

How the values were obtained:
Assay in all cases: NCI anticancer screen, dose series, 48 h
UACC-257 melanoma = tested on: UACC-257 melanoma
SK-MEL-28 melanoma = tested on: SK-MEL-28 melanoma
LOX IMVI melanoma = tested on: LOX IMVI melanoma
SNB-75 CNS = tested on: SNB-75 CNS
ACHN renal = tested on: ACHN renal
SF-539 CNS = tested on: SF-539 CNS
IGROV1 ovarian = tested on: IGROV1 ovarian
RXF 393 renal = tested on: RXF 393 renal
SK-MEL-5 melanoma = tested on: SK-MEL-5 melanoma
HS 578T breast = tested on: HS 578T breast
OVCAR-5 ovarian = tested on: OVCAR-5 ovarian
A498 renal = tested on: A498 renal
HCT-15 colon = tested on: HCT-15 colon
NCI/ADR-RES ovarian = tested on: NCI/ADR-RES ovarian
NCI-H23 lung = tested on: NCI-H23 lung
COLO 205 colon = tested on: COLO 205 colon
HL-60(TB) leukemia = tested on: HL-60(TB) leukemia
UACC-62 melanoma = tested on: UACC-62 melanoma
SNB-19 CNS = tested on: SNB-19 CNS
OVCAR-8 ovarian = tested on: OVCAR-8 ovarian
SN12C renal = tested on: SN12C renal
HOP-62 NSCLC = tested on: HOP-62 NSCLC
U251 CNS = tested on: U251 CNS
BT-549 breast = tested on: BT-549 breast
OVCAR-4 ovarian = tested on: OVCAR-4 ovarian
MDA-MB-435 = tested on: MDA-MB-435
NCI-H460 lung = tested on: NCI-H460 lung
HCT-116 colon = tested on: HCT-116 colon
HT29 colon = tested on: HT29 colon
SK-MEL-2 melanoma = tested on: SK-MEL-2 melanoma
NCI-H522 lung = tested on: NCI-H522 lung
SF-268 CNS = tested on: SF-268 CNS
MCF7 breast = tested on: MCF7 breast
SK-OV-3 ovarian = tested on: SK-OV-3 ovarian
HOP-92 NSCLC = tested on: HOP-92 NSCLC
DU-145 prostate = tested on: DU-145 prostate
UO-31 renal = tested on: UO-31 renal
TK-10 renal = tested on: TK-10 renal
MDA-N = tested on: MDA-N
PC-3 prostate = tested on: PC-3 prostate
786-0 renal = tested on: 786-0 renal
OVCAR-3 ovarian = tested on: OVCAR-3 ovarian
MALME-3M melanoma = tested on: MALME-3M melanoma
A549 NSCLC = tested on: A549 NSCLC
SR leukemia = tested on: SR leukemia
MOLT-4 leukemia = tested on: MOLT-4 leukemia
EKVX NSCLC = tested on: EKVX NSCLC
SF-295 CNS = tested on: SF-295 CNS
M14 melanoma = tested on: M14 melanoma
T-47D breast = tested on: T-47D breast
RPMI-8226 leukemia = tested on: RPMI-8226 leukemia
KM12 colon = tested on: KM12 colon
CCRF-CEM leukemia = tested on: CCRF-CEM leukemia
SW-620 colon = tested on: SW-620 colon
NCI-H226 lung = tested on: NCI-H226 lung
MDA-MB-231 breast = tested on: MDA-MB-231 breast
K-562 leukemia = tested on: K-562 leukemia
CAKI-1 renal = tested on: CAKI-1 renal
HCC-2998 colon = tested on: HCC-2998 colon

Compound: O=C(O)C1CCCN1Cc1c[nH]c2ccccc12 (stereo not given)
- TGI (UACC-257 melanoma): > 100 µM
- TGI (SK-MEL-28 melanoma): > 100 µM
- TGI (LOX IMVI melanoma): > 100 µM
- TGI (SNB-75 CNS): > 100 µM
- TGI (ACHN renal): > 100 µM
- TGI (SF-539 CNS): > 100 µM
- TGI (IGROV1 ovarian): > 100 µM
- TGI (RXF 393 renal): > 100 µM
- TGI (SK-MEL-5 melanoma): > 100 µM
- TGI (HS 578T breast): > 100 µM
- TGI (OVCAR-5 ovarian): > 100 µM
- TGI (A498 renal): > 100 µM
- TGI (HCT-15 colon): > 100 µM
- TGI (NCI/ADR-RES ovarian): > 100 µM
- TGI (NCI-H23 lung): > 100 µM
- TGI (COLO 205 colon): > 100 µM
- TGI (HL-60(TB) leukemia): > 100 µM
- TGI (UACC-62 melanoma): > 100 µM
- TGI (SNB-19 CNS): > 100 µM
- TGI (OVCAR-8 ovarian): > 100 µM
- TGI (SN12C renal): > 100 µM
- TGI (HOP-62 NSCLC): > 100 µM
- TGI (U251 CNS): > 100 µM
- TGI (BT-549 breast): > 100 µM
- TGI (OVCAR-4 ovarian): > 100 µM
- TGI (MDA-MB-435): > 100 µM
- TGI (NCI-H460 lung): > 100 µM
- TGI (HCT-116 colon): > 100 µM
- TGI (HT29 colon): > 100 µM
- TGI (SK-MEL-2 melanoma): > 100 µM
- TGI (NCI-H522 lung): > 100 µM
- TGI (SF-268 CNS): > 100 µM
- TGI (MCF7 breast): > 100 µM
- TGI (SK-OV-3 ovarian): > 100 µM
- TGI (HOP-92 NSCLC): > 100 µM
- TGI (DU-145 prostate): > 100 µM
- TGI (UO-31 renal): > 100 µM
- TGI (TK-10 renal): > 100 µM
- TGI (MDA-N): > 100 µM
- TGI (PC-3 prostate): > 100 µM
- TGI (786-0 renal): > 100 µM
- TGI (OVCAR-3 ovarian): > 100 µM
- TGI (MALME-3M melanoma): > 100 µM
- TGI (A549 NSCLC): > 100 µM
- TGI (SR leukemia): > 100 µM
- TGI (MOLT-4 leukemia): > 100 µM
- TGI (EKVX NSCLC): > 100 µM
- TGI (SF-295 CNS): > 100 µM
- TGI (M14 melanoma): > 100 µM
- TGI (T-47D breast): > 100 µM
- TGI (RPMI-8226 leukemia): > 100 µM
- TGI (KM12 colon): > 100 µM
- TGI (CCRF-CEM leukemia): > 100 µM
- TGI (SW-620 colon): > 100 µM
- TGI (NCI-H226 lung): > 100 µM
- TGI (MDA-MB-231 breast): > 100 µM
- TGI (K-562 leukemia): > 100 µM
- TGI (CAKI-1 renal): > 100 µM

Compound: COc1ccc2c(c1OC)C(Br)CCC(Br)(Br)C2=O (stereo not given)
- TGI (UACC-257 melanoma): 27.7 µM
- TGI (SK-MEL-28 melanoma): 29.3 µM
- TGI (HCC-2998 colon): 23.7 µM
- TGI (LOX IMVI melanoma): 10.8 µM
- TGI (ACHN renal): 3.81 µM
- TGI (SF-539 CNS): 11.7 µM
- TGI (IGROV1 ovarian): 18.8 µM
- TGI (RXF 393 renal): 15.1 µM
- TGI (SK-MEL-5 melanoma): 14.7 µM
- TGI (HS 578T breast): 44.2 µM
- TGI (OVCAR-5 ovarian): 31.8 µM
- TGI (A498 renal): 29.4 µM
- TGI (HCT-15 colon): 25.6 µM
- TGI (NCI/ADR-RES ovarian): 40.2 µM
- TGI (NCI-H23 lung): 22.8 µM
- TGI (COLO 205 colon): 10.1 µM
- TGI (HL-60(TB) leukemia): 23.7 µM
- TGI (UACC-62 melanoma): 27.7 µM
- TGI (SNB-19 CNS): 28.9 µM
- TGI (OVCAR-8 ovarian): 21.9 µM
- TGI (SN12C renal): 16.7 µM
- TGI (HOP-62 NSCLC): 36.7 µM
- TGI (U251 CNS): 30.4 µM
- TGI (BT-549 breast): 20.3 µM
- TGI (OVCAR-4 ovarian): 18.9 µM
- TGI (MDA-MB-435): 19.3 µM
- TGI (NCI-H460 lung): 31 µM
- TGI (HCT-116 colon): 17.3 µM
- TGI (HT29 colon): 17.6 µM
- TGI (SK-MEL-2 melanoma): 28 µM
- TGI (NCI-H522 lung): 3.38 µM
- TGI (SF-268 CNS): 27.4 µM
- TGI (MCF7 breast): 21.3 µM
- TGI (SK-OV-3 ovarian): 31.2 µM
- TGI (HOP-92 NSCLC): 9.44 µM
- TGI (DU-145 prostate): 24.9 µM
- TGI (UO-31 renal): 14 µM
- TGI (TK-10 renal): 19.4 µM
- TGI (MDA-N): 14.2 µM
- TGI (PC-3 prostate): 24.2 µM
- TGI (786-0 renal): 15.3 µM
- TGI (OVCAR-3 ovarian): 30.2 µM
- TGI (MALME-3M melanoma): 22.6 µM
- TGI (A549 NSCLC): 29 µM
- TGI (SR leukemia): 4.22 µM
- TGI (MOLT-4 leukemia): 8.32 µM
- TGI (EKVX NSCLC): 29.4 µM
- TGI (SF-295 CNS): 32.5 µM
- TGI (M14 melanoma): 18.3 µM
- TGI (T-47D breast): 43 µM
- TGI (RPMI-8226 leukemia): 26.1 µM
- TGI (KM12 colon): 32.2 µM
- TGI (SW-620 colon): 6.61 µM
- TGI (NCI-H226 lung): 30.1 µM
- TGI (MDA-MB-231 breast): 29.9 µM
- TGI (K-562 leukemia): 11.6 µM
- TGI (CAKI-1 renal): 3.24 µM
